The experiment concerns Dermal papilla cells, DPC. Put plainly: Dermal papilla cell (DPC) proliferation, CCK-8. The experiment is classed as cell-based. The settings on record: 10 μM, 24 hours. How it is done: After dispensing a serum medium with 10,000 cells/well of papillary cells (Dermal papilla cells, DPC) in a 96-well microplate, the cells were incubated overnight at 37° C. in a CO2 incubator. […] After removing the treated material from each cell and dispensing the CCK-8 solution thereto, the cells were incubated in the CO2 incubator at 37° C. for 2 hours, and absorbance was measured at 450 nm.

As to `Nc1cc(N2CCCCC2)nc(N)[n+]1[O-]` [M1, Minoxidil], the “DPC proliferation rate (%)” value worked out at 118.97%.

The values above are taken from US20220016183A1, “EXOSOME AND VARIOUS USES THEREOF” (PROSTEMICS CO., LTD., priority 2018, published 2022).
